Measured values from patent US20090233942A1, “Genetic markers associated with response to antidepressants” (priority 2008, published 2009).

Tested on: adult patients diagnosed with MDD
Experiment: Eight-week randomized, double-blind, placebo-controlled study: association of sequenced gene markers (Tables 1-17) with vilazodone response as change of MADRS
Type: in vivo, human
Conditions: mean MADRS decrease
From the text: There was a wide range of inter-individual variability in response to vilazodone as well as to placebo and the active comparators. This variability may be partially due to genetic differences among the individuals treated. This example illustrates a randomized, double-blind, placebo-controlled, multicenter, eight-week study designed to discover genetic markers of response to vilazodone in adult patients diagnosed with MDD by the DSM-IV-TR criteria. Patients must have met all of the following inclusion criteria to be considered for enrollment in the study: (1) 18-65 years of age; (2) diagnosis of MDD, single episode or recurrent, according to DSM-IV-TR (296.2/296.3) with a current Major Depressive Episode of less than one year's duration with a minimum duration of at least 4 weeks; (3) HAM-D score≧22 on the first 17 items of the 21-item HAM-D at screening and baseline visits; (4) HAM-D item 1 (depressed mood) score≧2 at the screening visit and the baseline visit; (5) provision of written informed consent to participate; and (6) ability to speak, read and understand English and to respond to questions and follow simple instructions.
Following randomization into vilazodone and placebo groups, patients began the forced titration schedule. Patients received 10 mg qd until Visit 3 (approximately Day 7). At Visit 3 patients received 20 mg qd until Visit 4 (approximately Day 14). At Visit 4 patients received the target dose of 40 mg qd (approximately Day 15). A total of 152 patients completed the vilazodone arm, while 154 patients completed the placebo arm.
This example illustrates genotyping of the study group for the ACE, ATP5C3, BCL2L1, CYP2C9, DRD3, FOS, DTNBP1, GABRG3, GRIA4, LAMA4, MAPK1, NPY1R, OPRD1, OPRM1, PER3, PLCB1, and PSMD1 polymorphic sites selected by the inventors herein for analysis. Genomic DNA was isolated from blood obtained from each individual and amplified target regions containing the polymorphic sites in Tables A-21 to A-37 (Appendix A) were sequenced to determine the genotypes at these polymorphic sites. Tailed (Universal M13 Forward and Reverse) PCR primers were designed using the sequence of SEQ ID NO:1 for ACE, SEQ ID NO:2 for ATP5C3, SEQ ID NO:3 for BCL2L1, SEQ ID NO:4 for CYP2C9, SEQ ID NO:5 for DRD3, SEQ ID NO:6 for FOS, SEQ ID NO:7 for DTNBP1, SEQ ID NO:8 for GABRG3, SEQ ID NO:9 for GRIA4, SEQ ID NO:10 for LAMA4, SEQ ID NO:11 for MAPK1, SEQ ID NO:12 for NPY1R, SEQ ID NO:13 for OPRD1, SEQ ID NO:14 for OPRM1, SEQ ID NO:15 for PER3, SEQ ID NO:16 for PLCB1, and SEQ ID NO:17 for PSMD1. Amplified PCR products were sequenced using Applied Biosystems' Big Dye® Terminator v 3.1 cycle sequencing kit according to manufacturer's instructions. The reaction products were then electrophoresed using an Applied Biosystems 3700 or 3730xl DNA analyzer. Polymorphisms were identified using the Polyphred program, and confirmed by visual inspection.
Haplotypes were estimated from the unphased genotypes using a computer-implemented algorithm for assigning haplotypes to unrelated individuals in a population sample, essentially as described in WO 01/80156. In this method, haplotypes are assigned directly from individuals who are homozygous at all sites or heterozygous at no more than one of the variable sites. This list of haplotypes is then used to deconvolute the unphased genotypes in the remaining (multiply heterozygous) individuals.
This example illustrates analysis of the markers in Tables A-1 to A-17 (Appendix A) for association with vilazodone response. A proprietary algorithm was used as a tool for finding associations between markers and outcomes. The clinical outcomes were improvement in disease over eight weeks of treatment with vilazodone as measured by the MADRS scale. A linear model was first fitted on the covariates, which were treatment center, race, ethnicity, and baseline values. […]

[1] = PLCB1 marker 106, carriers vs non-carriers
[2] = PLCB1 marker 107, carriers vs non-carriers
[3] = PLCB1 marker 108, carriers vs non-carriers
[4] = PLCB1 marker 109, carriers vs non-carriers
[5] = PLCB1 marker 110, carriers vs non-carriers
[6] = PLCB1 marker 111, carriers vs non-carriers
[7] = PLCB1 marker 112, carriers vs non-carriers
[8] = PLCB1 marker 113, carriers vs non-carriers
[9] = PLCB1 marker 114, carriers vs non-carriers
[10] = PLCB1 marker 115, carriers vs non-carriers
[11] = PLCB1 marker 116, carriers vs non-carriers
[12] = PLCB1 marker 117, carriers vs non-carriers
[13] = PLCB1 marker 118, carriers vs non-carriers
[14] = PLCB1 marker 119, carriers vs non-carriers
[15] = PLCB1 marker 120, carriers vs non-carriers
[16] = PLCB1 marker 121, carriers vs non-carriers
[17] = PLCB1 marker 122, carriers vs non-carriers
[18] = PLCB1 marker 123, carriers vs non-carriers
[19] = PLCB1 marker 124, carriers vs non-carriers
[20] = PLCB1 marker 125, carriers vs non-carriers
[21] = PLCB1 marker 126, carriers vs non-carriers
[22] = PLCB1 marker 127, carriers vs non-carriers
[23] = PLCB1 marker 128, carriers vs non-carriers
[24] = PLCB1 marker 129, carriers vs non-carriers
[25] = PLCB1 marker 130, carriers vs non-carriers

Cl.N#Cc1ccc2[nH]cc(CCCCN3CCN(c4ccc5oc(C(N)=O)cc5c4)CC3)c2c1 [Vilazodone, 5-{4-[4-(5-Cyano-3-indolyl)-butyl]-1-piperazinyl}-benzofuran-2-carboxamide hydrochloride]
Response difference (Cauc. only) [1]: −6.6 | Response difference (all ethnic.) [1]: −4.6 | Response difference (Cauc. only) [2]: −6.6 | Response difference (all ethnic.) [2]: −4.6 | Response difference (Cauc. only) [3]: −6.6 | Response difference (all ethnic.) [3]: −4.6 | Response difference (Cauc. only) [4]: −6.6 | Response difference (all ethnic.) [4]: −4.6 | Response difference (Cauc. only) [5]: −6.7 | Response difference (all ethnic.) [5]: −4.7 | Response difference (Cauc. only) [6]: −6.7 | Response difference (all ethnic.) [6]: −4.7 | Response difference (Cauc. only) [7]: −6.7 | Response difference (all ethnic.) [7]: −4.7 | Response difference (Cauc. only) [8]: −6.7 | Response difference (all ethnic.) [8]: −4.7 | Response difference (Cauc. only) [9]: −6.7 | Response difference (all ethnic.) [9]: −4.7 | Response difference (Cauc. only) [10]: −6.7 | Response difference (all ethnic.) [10]: −4.7 | Response difference (Cauc. only) [11]: −6.7 | Response difference (all ethnic.) [11]: −4.7 | Response difference (Cauc. only) [12]: −6.7 | Response difference (all ethnic.) [12]: −4.7 | Response difference (Cauc. only) [13]: −6.7 | Response difference (all ethnic.) [13]: −4.7 | Response difference (Cauc. only) [14]: −6.7 | Response difference (all ethnic.) [14]: −4.7 | Response difference (Cauc. only) [15]: −6.7 | Response difference (all ethnic.) [15]: −4.7 | Response difference (Cauc. only) [16]: −6.7 | Response difference (all ethnic.) [16]: −4.7 | Response difference (Cauc. only) [17]: −6.7 | Response difference (all ethnic.) [17]: −4.7 | Response difference (Cauc. only) [18]: −6.7 | Response difference (all ethnic.) [18]: −4.7 | Response difference (Cauc. only) [19]: −5.9 | Response difference (all ethnic.) [19]: −4.2 | Response difference (Cauc. only) [20]: −5.9 | Response difference (all ethnic.) [20]: −4.2 | Response difference (Cauc. only) [21]: −5.9 | Response difference (all ethnic.) [21]: −4.2 | Response difference (Cauc. only) [22]: −5.9 | Response difference (all ethnic.) [22]: −4.2 | Response difference (Cauc. only) [23]: −5.9 | Response difference (all ethnic.) [23]: −4.2 | Response difference (Cauc. only) [24]: −5.9 | Response difference (all ethnic.) [24]: −4.2 | Response difference (Cauc. only) [25]: −5.9 | Response difference (all ethnic.) [25]: −4.2
